In PubChem BioAssay (NCI):
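Briefly, cells in 96-well plates were exposed to five compound concentrations for 48 h, and endpoints were estimated by linear interpolation. Abbreviation: GI50, concentration required for 50% inhibition of growth. TGI marks complete inhibition of growth.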

Legend:
Assay in all cases: NCI anticancer screen, dose series, 48 h
COLO 205 colon = tested on: COLO 205 colon
HCT-15 colon = tested on: HCT-15 colon
MDA-MB-231 breast = tested on: MDA-MB-231 breast
NCI-H226 lung = tested on: NCI-H226 lung
NCI-H23 lung = tested on: NCI-H23 lung
OVCAR-4 ovarian = tested on: OVCAR-4 ovarian
PC-3 prostate = tested on: PC-3 prostate
SF-295 CNS = tested on: SF-295 CNS
SNB-19 CNS = tested on: SNB-19 CNS
SW-620 colon = tested on: SW-620 colon

Row | Structure (SMILES) | GI50 (COLO 205 colon) [µM] | TGI (COLO 205 colon) [µM] | GI50 (HCT-15 colon) [µM] | TGI (HCT-15 colon) [µM] | GI50 (MDA-MB-231 breast) [µM] | TGI (MDA-MB-231 breast) [µM] | GI50 (NCI-H226 lung) [µM] | TGI (NCI-H226 lung) [µM] | GI50 (NCI-H23 lung) [µM] | TGI (NCI-H23 lung) [µM] | GI50 (OVCAR-4 ovarian) [µM] | TGI (OVCAR-4 ovarian) [µM] | GI50 (PC-3 prostate) [µM] | TGI (PC-3 prostate) [µM] | GI50 (SF-295 CNS) [µM] | TGI (SF-295 CNS) [µM] | GI50 (SNB-19 CNS) [µM] | TGI (SNB-19 CNS) [µM] | GI50 (SW-620 colon) [µM] | TGI (SW-620 colon) [µM]
1 | O=C(Oc1cccnc1)c1ccsc1Nc1ccnc(C(F)(F)F)c1 | 4.89 | 24.6 | 3.49 | > 100 | 6.03 | > 100 | 22.3 | > 100 | 4.07 | > 100 | 5.21 | > 100 | 9.24 | 73.2 | 24 | > 100 | 20.7 | > 100 | 4.09 | > 100
2 | Nc1ccccc1SCc1csc(-c2ccc(Cl)cc2)n1 | – | 34.6 | – | > 82.1 | – | 54.6 | – | 62.5 | – | > 84.6 | – | > 77.1 | – | > 71.5 | – | > 100 | – | > 100 | – | > 100
3 | O=C1NC(=O)C(c2cccc(Cl)c2)=C1Nc1ccc(O)c(Cl)c1 | > 20.1 | > 25 | 8.66 | > 25 | 16.1 | > 25 | 12 | > 25 | 12.9 | > 25 | 8.98 | > 25 | 12.2 | > 25 | 11.6 | > 25 | 15.9 | > 25 | 8.73 | > 25
4 | Cc1ccc2nc(NC(=O)/C(Cc3nc4ccc(Cl)cc4[nH]c3=O)=N\NC(C)(C)C)sc2c1 | – | > 100 | – | > 100 | – | > 100 | – | 91.3 | – | > 100 | – | > 100 | – | > 100 | – | > 100 | – | > 100 | – | > 100
5 | O=C(Nc1cccc(Nc2ncc(Br)c(NCCc3cnc[nH]3)n2)c1)N1CCCC1 | 0.562 | 4.06 | 21.7 | > 67 | 4.07 | 29.2 | 0.771 | 4.74 | 2.98 | 21.3 | 3.71 | 31.1 | 3.2 | 45.6 | 3.72 | 20.8 | 9.02 | > 61.4 | 1.27 | 11.4
6 | CSC(=S)N/N=C(\C)c1cccc(C)n1 | – | 2.82 | – | 48.1 | – | 36.4 | – | 10.7 | – | 13.9 | – | 19.5 | – | 36.3 | – | 24.8 | – | > 100 | – | > 56.9
7 | CCN(CCO)CC(C)Nc1ccc([N+](=O)[O-])c2sc3ccccc3c(=O)c12 (centres undefined) | 1.62 | 5.96 | 1.76 | > 100 | 2.6 | 12.3 | 1.37 | 7.15 | 1.78 | 6.4 | 3.32 | 15.7 | 1.33 | 4.55 | 0.488 | 2.12 | 2.34 | 19 | 1.04 | 3.19
8 | CN(CC(N)=O)C(=O)N(CCCl)N=O | – | > 100 | – | > 100 | – | > 100 | – | > 100 | – | > 100 | – | > 100 | – | > 100 | – | > 100 | – | > 100 | – | > 100
9 | COC1O[C@@H]2C[C@H]3C(C)(C)CCC[C@]3(C)C3=CCCC1[C@@]32C (some centres undefined) | > 100 | > 100 | > 100 | > 100 | > 100 | > 100 | > 100 | > 100 | > 100 | > 100 | > 100 | > 100 | 0.515 | > 100 | > 100 | > 100 | > 100 | > 100 | > 100 | > 100
10 | Cc1c(C2=C(c3cn(C)c4ccccc34)C(=O)NC2=O)c2ccccc2n1C | 1.51 | > 25 | 1.3 | > 25 | > 18.6 | > 25 | 4.33 | > 25 | 13.2 | > 25 | 9.22 | > 25 | 4.38 | > 25 | 1.16 | > 25 | > 25 | > 25 | 1.26 | > 25
11 | N#Cc1c(N)[nH]c2ccc(Sc3ccccc3)cc12 | – | 1.34 | – | 14.9 | – | 15.4 | – | 1.29 | – | 10.3 | – | 21.6 | – | 15.8 | – | 4.96 | – | 17.2 | – | 16.9
12 | Cc1ccc(NC(=O)c2ccccc2C(=O)O)cc1C | – | > 100 | – | > 100 | – | > 100 | – | > 100 | – | > 100 | – | > 100 | – | > 100 | – | > 100 | – | > 100 | – | > 100
13 | Cn1cc(-c2nonc2-c2cn(C)c3ccccc23)c2ccccc21 | 2.54 | > 100 | 0.537 | > 100 | 1.35 | > 100 | 3.25 | > 100 | 1.98 | > 100 | 2.74 | > 100 | 1.42 | > 100 | 0.42 | > 100 | 0.91 | > 100 | 0.425 | > 100
14 | Cn1cncc1CC1COC(=O)C1C(O)c1ccccc1 (centres undefined) | – | > 100 | – | > 100 | – | > 100 | – | > 100 | – | > 100 | – | > 100 | – | > 100 | – | > 100 | – | > 100 | – | > 100
15 | C[C@@H]1O[C@@H](O[C@H]2CC[C@@]3(C)[C@H](CCC4[C@@H]3C(O)C[C@]3(C)[C@@H](c5ccc(=O)oc5)CC[C@]43O)C2)[C@H](O)[C@H](O)[C@H]1O (some centres undefined) | 0.00664 | 0.013 | 0.00786 | 0.0209 | 0.0112 | 0.0369 | 0.00608 | 0.0107 | < 0.00325 | 0.00672 | < 0.00325 | – | 0.00462 | 0.0296 | 0.00664 | 0.0291 | 0.0108 | 0.0357 | 0.00489 | 0.0123
16 | COc1ccc(C2[C@@H](Cl)C(=O)N2c2cc(OC)c(OC)c(OC)c2)cc1Cl (some centres undefined) | 0.203 | 0.512 | 0.191 | > 100 | 0.273 | 26.1 | 0.239 | 34 | 0.428 | > 100 | 0.837 | > 100 | 0.0642 | > 100 | 0.0411 | 0.648 | 0.293 | > 100 | 0.132 | 65
17 | CCCCCn1sc(=O)n(Cc2ccc(CNC(=O)OCc3ccc4cccc(O)c4n3)cc2)c1=O | 1.59 | 3.75 | 1.44 | 4.81 | 1.32 | 2.63 | 1.47 | 3.31 | 1.67 | 3.59 | 1.67 | 3.21 | 1.22 | 2.76 | 6.73 | 20.1 | 4.44 | 16.7 | 1.25 | 2.83
18 | N/N=C1\CC(=O)NC(=O)N1 | – | > 100 | – | > 100 | – | > 100 | – | > 100 | – | > 100 | – | > 100 | – | > 100 | – | > 100 | – | > 100 | – | > 100
19 | COc1cc2c(c(OC)c1OC)-c1ccc(SC)c(=O)cc1[C@@H](NC1OC(CO)C(O)C(O)C1O)CC2 (some centres undefined) | 0.0161 | 0.0412 | 0.0374 | > 100 | 0.0341 | > 100 | 1.52 | > 100 | 0.0568 | > 100 | 0.226 | > 100 | 0.0347 | > 100 | 0.0338 | > 100 | 0.0797 | > 100 | 0.0294 | > 100
20 | CCn1c2ccccc2c2cc(/C=C(/C#N)C(N)=O)ccc21 | 4.65 | > 100 | 14.8 | > 100 | 21 | > 100 | 0.209 | 1.13 | 16.3 | > 100 | 6.54 | > 100 | 21.6 | > 100 | 3.42 | 30 | 10.2 | > 87.8 | 4.86 | > 100
21 | CCOc1nc(N)nc(C)c1N=Nc1ccc(Cl)cc1 | – | > 100 | – | > 100 | – | > 100 | – | > 100 | – | > 100 | – | > 100 | – | > 100 | – | 94.1 | – | > 100 | – | > 100
